Results taken from patent US20240009116A1, “DRUG DELIVERY SYSTEM COMPRISING A NON-STEROIDAL ANTI-INFLAMMATORY (NSAID) AND A PROGESTOGENIC COMPOUND AND METHODS FOR MANUFACTURING” (Bayer OY, priority 2015, published 2024).

Test: Polymorph form during filament preparation and printing (i.a. X-ray diffraction)
Assay type: physicochemical
Excerpt: As drug indomethacin was used. Indomethacin can appear in different polymorphic forms, which are differently bioavailable. In the current examples the stable form y-indomethacin was used. […] Other NSAID's such as meloxicam, piroxicam, naproxen, celecoxib, diclofenac, tenoxicam, nimesulide, lornoxicam and indomethacin are likewise suitable, of which indomethacin is particularly preferred.

## COc1ccc2c(c1)c(CC(=O)O)c(C)n2C(=O)c1ccc(Cl)cc1 [y-indomethacin, indomethacin]
  polymorph form stability: the polymorph form does not change during filament preparation and printing
